Series [1] deals with T1, Bcl6 (Homo sapiens (Human), UniProt P41182). Description: Bcl-6 protein degradation experiment in OCI-LY1 cells. In kind it is cell-based. Particulars: 24 hours. The protocol:
4. Bcl-6 Protein Degradation Experiment in OCI-LY1 Cells
(§1) OCI-LY1 cells purchased from DSMZ were placed in an IMDM complete medium (containing 10% fetal bovine serum, 100 U/mL penicillin, 100 μg/mL streptomycin and 50 µM mercaptoethanol) and cultured at 37° C. and 5% CO2. The cells in the logarithmic growth phase were collected, and the cell suspension was adjusted to an appropriate density with the culture medium and added to a 6-well cell culture plate at a volume of 1 mL/well. The compounds to be tested were prepared to 2-fold the final concentration, 1 mL of the compounds at different concentrations were added to administration wells, a medium containing 0.2% DMSO was added to control wells, and the plate was incubated at 37° C. for 24 hours. The cells were collected into a 1.5 mL centrifuge tube, 25 L of RIPA lysis buffer (containing 1× protease inhibitor cocktail) was added, and the cells were lysed on ice for 15 minutes and centrifuged at 12000 rpm/min at 4° C. for 10 minutes. The supernatant was collected and the protein content was determined using the BCA method. The protein sample to be tested was diluted to 0.8 mg/mL, Bcl6 was detected using a fully automated protein expression quantitative analyzer (ProteinSimple), and the internal reference protein was R-actin (both antibodies were from CST). The software (Compass for SW) of the fully automated protein expression quantitative analyzer was used to process the raw data and calculate the peak area and the Bcl6 expression rate relative to the control group. DC50 values were calculated using a four-parameter non-linear fitting model in Graphpad 8.3.0 software.

A short description of series [2]: Pharmacokinetic test in rats. As to conditions: male, SD, rat, po; rats plasma, i.g. 5 mg/kg. In kind it is in vivo, SD rats. How it is done: 5. Pharmacokinetic Test in Rats
Experimental objective: in this experiment, a single dose of each test compound was administered to SD rats intravenously and intragastrically, and the concentrations of the test compounds in plasma of rats were measured to evaluate the pharmacokinetic characteristics of the test compounds in rats.
Experimental animal: male SD rats, 200-220 g, 6-8 weeks old, 6 rats/compound, purchased from Chengdu Ddossy Experimental Animals Co., Ltd.
Experimental method: on the day of the experiment, the SD rats were randomly grouped according to their body weights. The animals were fasted but with water available for 12 to 14 h one day before the administration, and were fed 4 h after the administration.
Sampling: Before and after the administration, 0.1 mL of blood was taken from the orbits under isoflurane anesthesia and placed in an EDTAK2 centrifuge tube. Centrifugation was carried out at 5000 rpm at 4° C. for 10 min, and the plasma was collected.
The plasma collection time points for IV&PO groups were 0, 5 min, 15 min, 30 min, 1 h, 2 h, 4 h, 7h, and 24 h.
Before analysis and detection, all samples were stored at −60° C. The samples were analyzed quantitatively by LC-MS/MS. PGP-3212J

Series [3] deals with T1, Bcl6. Nature of the series: Bcl-6 protein degradation experiment in Farage cells. Particulars: 24 hours. In kind it is cell-based. How it is done: 2. Bcl-6 Protein Degradation Experiment in Farage Cells
as §1, with “Farage cells” for “OCI-LY1 cells”, “from ATCC” for “from DSMZ”, “an RPMI-1640” for “an IMDM”, “U/mL penicillin and” for “U/mL penicillin,”, “μg/mL streptomycin)” for “μg/mL streptomycin and 50 µM mercaptoethanol)”, “25 μL” for “25 L”

A short description of series [4]: Pharmacokinetic test in mice. In kind it is in vivo, ICR mice. Particulars: i.g. 5 mg/kg; for AUC(0-t): male, ICR, mouse, po, mice plasma; for F: mice. How it is done: 3. Pharmacokinetic Test in Mice
1.1 Experimental animal: male ICR mice, 25-30 g, 6 mice/compound, purchased from Chengdu Ddossy Experimental Animals Co., Ltd.
1.2 Experimental design: on the day of the experiment, the ICR mice were randomly grouped according to their body weights. The animals were fasted but with water available for 12 to 14 h one day before the administration, and were fed 4 h after the administration.

Series [5] concerns the target hERG potassium ion channel (Homo sapiens (Human), UniProt Q12809). Description: Test for hERG potassium ion channel (manual patch-clamp, CHO cells). In kind it is cell-based. As to conditions: CHO cells stably expressing hERG, whole cell patch-clamp; read-out: IC50 of inhibitory effects on hERG potassium channel current. An excerpt: 8. Test for hERG Potassium Ion Channel
Experimental platform: electrophysiological manual patch-clamp system
Cell line: Chinese hamster ovary (CHO) cell lines stably expressing hERG potassium ion channel
Experimental method: in CHO (Chinese Hamster Ovary) cells stably expressing hERG potassium channel, the whole cell patch-clamp technique was used to record hERG potassium channel current at room temperature. The glass microelectrode was made of a glass electrode blank (BF150-86-10, Sutter) by a puller. The tip resistance after filling the liquid in the electrode was about 2-5 MΩ. The glass microelectrode can be connected to the patch-clamp amplifier by inserting the glass microelectrode into an amplifier probe. The clamping voltage and data recording were controlled and recorded by the pClamp 10 software through a computer. The sampling frequency was 10 kHz, and the filtering frequency was 2 kHz. After the whole cell records were obtained, the cells were clamped at −80 mV, and the step voltage that induced the hERG potassium current (IhERG) was depolarized from −80 mV to +20 mV for 2 s, then repolarized to −50 mV, and returned to −80 mV after 1 s. This voltage stimulation was given every 10 s, and the administration process was started after the hERG potassium current was confirmed to be stable (at least 1 minute). The compound was administered for at least 1 minute at each test concentration, and at least 2 cells (n≥2) were tested at each concentration.
Data processing: data analysis processing was carried out by using pClamp 10, GraphPad Prism 5 and Excel software. The inhibition degree of hERG potassium current (peak value of hERG tail current induced at −50 mV) at different compound concentrations was calculated by the following formula: […]
where Inhibition % represents the percentage of inhibition of hERG potassium current by the compound, and I and Io represent the amplitude of hERG potassium current after and before the administration, respectively.
Compound IC50 was calculated using GraphPad Prism 5 software by fitting according to the following equation: […]
Among the equation, X represents the Log value of the tested concentration of the test sample, Y represents the inhibition percentage at the corresponding concentration, and Bottom and Top represent the minimum and maximum inhibition percentage, respectively.
For orientation: The hERG channel carries a current that helps repolarise heart muscle cells.

Here are results for 17 compounds from US20250333410A1, “COMPOUND FOR INHIBITING OR DEGRADING BCL6 AND USE THEREOF IN PHARMACEUTICS” (XIZANG HAISCO PHARMACEUTICAL CO., LTD., priority 2022, published 2025).

Broadly, the DC50 is the midpoint of the concentration-degradation curve. A high value points to a less potent degrader. Usually AUC(0-t) stands for the area under the concentration-time curve up to a stated or last time point. Higher therefore signals more exposure. One may read the IC50 as the concentration that gives 50% inhibition.

Chain of hERG potassium ion channel (Q12809 whole entry): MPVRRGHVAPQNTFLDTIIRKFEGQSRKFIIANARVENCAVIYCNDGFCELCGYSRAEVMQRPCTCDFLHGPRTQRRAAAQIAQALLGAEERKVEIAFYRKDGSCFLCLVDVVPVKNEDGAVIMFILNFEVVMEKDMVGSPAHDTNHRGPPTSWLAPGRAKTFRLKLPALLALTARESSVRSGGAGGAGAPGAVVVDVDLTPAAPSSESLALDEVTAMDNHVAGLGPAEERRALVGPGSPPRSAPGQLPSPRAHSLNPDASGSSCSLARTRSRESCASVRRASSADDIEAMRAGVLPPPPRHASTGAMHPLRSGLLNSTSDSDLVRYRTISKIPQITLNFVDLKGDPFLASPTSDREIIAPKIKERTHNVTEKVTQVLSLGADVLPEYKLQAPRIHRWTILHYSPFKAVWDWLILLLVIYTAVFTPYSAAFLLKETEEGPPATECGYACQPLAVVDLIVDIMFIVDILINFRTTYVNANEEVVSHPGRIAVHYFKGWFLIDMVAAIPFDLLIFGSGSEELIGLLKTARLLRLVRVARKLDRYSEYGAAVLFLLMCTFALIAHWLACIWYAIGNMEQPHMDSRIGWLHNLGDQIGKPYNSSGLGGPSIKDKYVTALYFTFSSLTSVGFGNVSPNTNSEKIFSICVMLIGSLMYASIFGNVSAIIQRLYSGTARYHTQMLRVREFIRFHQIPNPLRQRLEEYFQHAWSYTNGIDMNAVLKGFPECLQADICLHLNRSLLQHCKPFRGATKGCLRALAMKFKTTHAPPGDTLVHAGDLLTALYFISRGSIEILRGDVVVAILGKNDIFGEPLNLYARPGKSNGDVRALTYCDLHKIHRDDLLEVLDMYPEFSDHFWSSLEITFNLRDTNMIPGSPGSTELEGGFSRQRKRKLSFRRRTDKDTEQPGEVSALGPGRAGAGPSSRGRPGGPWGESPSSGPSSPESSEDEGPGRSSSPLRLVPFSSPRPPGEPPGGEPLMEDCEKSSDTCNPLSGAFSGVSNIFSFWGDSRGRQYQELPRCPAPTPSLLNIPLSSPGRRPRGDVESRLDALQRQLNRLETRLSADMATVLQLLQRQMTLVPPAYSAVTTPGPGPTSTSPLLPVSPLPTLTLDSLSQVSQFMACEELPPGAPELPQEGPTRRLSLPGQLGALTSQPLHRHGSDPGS

In turn, `CC(=O)COc1cc2cc(Nc3nc(N4CCC(C5CCN(c6ccc(C7CCC(=O)NC7=O)cc6)CC5)CC4)ncc3Cl)ccc2n(C)c1=O` (centres unmarked) [Compound 18] yielded a DC50 on Bcl6 [1] of less than 100 nM.
On to `CCn1c(=O)c(OCC(=O)NC)cc2cc(Nc3nc(N4CCC(O[C@H]5C[C@H](N6CCN7c8cc(F)c(C9CCC(=O)NC9=O)cc8CC[C@@H]7C6)C5)CC4)ncc3Cl)ccc21` (some centres unmarked) [Trifluoroacetate of compound 74], for which, in series [2], the AUC(0-t) was greater than 1000 ng·h/mL. In addition, the DC50 at Bcl6 [3] was less than 10 nM.
As for `CNC(=O)COc1cc2cc(Nc3nc(N4CCC(CN5CCN6c7cc(F)c(C8CCC(=O)NC8=O)cc7CC[C@H]6C5)CC4)ncc3Cl)ccc2n(C(C)C)c1=O` (some centres unmarked) [Trifluoroacetate of compound 57], the DC50 was less than 10 nM on Bcl6 [3], less than 100 nM on Bcl6 [1] and less than 5 nM on Bcl6 [1] (listed as trifluoroacetate of compound 57). In series [4], this compound came in with an AUC(0-t) greater than 1000 ng·h/mL.
Consider `CNC(=O)COc1cc2cc(Nc3nc(N4CCC(O[C@H]5C[C@H](N6CCN7c8cc(F)c(C9CCC(=O)NC9=O)cc8CC[C@H]7C6)C5)CC4)ncc3Cl)ccc2n(C(C)C)c1=O` (some centres unmarked) [Trifluoroacetate of compound 58], for which the DC50 was less than 10 nM at Bcl6 [3], less than 100 nM on Bcl6 [1] and less than 5 nM on Bcl6 [1] (listed as trifluoroacetate of compound 58). In series [4], this compound registered an AUC(0-t) greater than 1000 ng·h/mL. In series [4], this compound had an F greater than 50%.
`[2H]C([2H])([2H])NC(=O)COc1cc2cc(Nc3nc(N4CCC(CN5CCN6c7cc(F)c(C8CCC(=O)NC8=O)cc7CC[C@@H]6C5)CC4)ncc3Cl)ccc2n(C([2H])([2H])[2H])c1=O` (some centres unmarked) [Trifluoroacetate of compound 63] came in with a DC50 at Bcl6 [3] of less than 10 nM. In series [4], this compound registered an AUC(0-t) greater than 1000 ng·h/mL.
On Bcl6 [1], `CNC(=O)COc1cc2cc(Nc3nc(N4CCC(N5CCN(c6ccc(C7CCC(=O)NC7=O)cc6)CC5)CC4)ncc3Cl)ccc2n(C)c1=O` (centres unmarked) [Compound 16] displayed a DC50 of less than 100 nM.
On Bcl6 [3], `[2H]C([2H])([2H])NC(=O)COc1cc2cc(Nc3nc(N4CCC(CN5CCN6c7cc(F)c(C8CCC(=O)NC8=O)cc7CC[C@H]6C5)CC4)ncc3Cl)ccc2n(C([2H])([2H])[2H])c1=O` (some centres unmarked) [Trifluoroacetate of compound 66] gave a DC50 of less than 10 nM. In series [4], this compound showed an AUC(0-t) greater than 1000 ng·h/mL and an F greater than 50%.
`CNC(=O)COc1cc2cc(Nc3nc(N4CCC(CN5CCN6c7cc(F)c(C8CCC(=O)NC8=O)cc7CC[C@@H]6C5)CC4)ncc3Cl)ccc2n(C(C)C)c1=O` (some centres unmarked) [Trifluoroacetate of compound 56] had a DC50 at Bcl6 [3] of less than 10 nM. Besides, the AUC(0-t) in series [4] is greater than 1000 ng·h/mL.
Take `CC(=O)COc1cc2cc(Nc3nc(N4CCC(CN5CCN(c6ccc(C7CCC(=O)NC7=O)cc6)CC5)CC4)ncc3Cl)ccc2n(C)c1=O` (centres unmarked) [Trifluoroacetate of compound 13]: the DC50 at Bcl6 [3] was less than 10 nM. Also, the AUC(0-t) in series [4] is greater than 1000 ng·h/mL.
Consider `CNC(=O)COc1cc2cc(Nc3nc(N4CCN(CC5CCN(c6ccc(C7CCC(=O)NC7=O)c(F)c6)CC5)CC4)ncc3Cl)ccc2n(C)c1=O` (centres unmarked) [Trifluoroacetate of compound 24], for which the values for the DC50 on Bcl6 [3], on Bcl6 [1] and on Bcl6 [1] (listed as trifluoroacetate of compound 24) were less than 10 nM, less than 100 nM and less than 5 nM, respectively. Moreover, the AUC(0-t) in series [4] is greater than 1000 ng·h/mL. Moreover, the F in series [4] was greater than 50%.
Consider `[2H]C([2H])([2H])NC(=O)COc1cc2cc(Nc3nc(N4CCC(CN5CCN6c7cc(F)c(C8CCC(=O)NC8=O)cc7CC[C@H]6C5)CC4)ncc3Cl)ccc2n(C)c1=O` (some centres unmarked) [Trifluoroacetate of compound 67], for which the half-maximal degradation concentration (DC50) on Bcl6 [3] is less than 10 nM. In series [4], this compound displayed an area under the curve AUC(0-t) greater than 1000 ng·h/mL and an F greater than 50%. In addition, the IC50 in series [5] is greater than 40000 nM.
In turn, `[2H]C([2H])([2H])n1c(=O)c(OCC(=O)NC)cc2cc(Nc3nc(N4CCC(CN5CCN6c7cc(F)c(C8CCC(=O)NC8=O)cc7CC[C@@H]6C5)CC4)ncc3Cl)ccc21` (some centres unmarked) [Trifluoroacetate of compound 62] showed a DC50 at Bcl6 [3] of less than 10 nM. In series [4], this compound gave an AUC(0-t) greater than 1000 ng·h/mL and an F greater than 50%.
For the compound `[2H]C([2H])([2H])n1c(=O)c(OCC(=O)NC)cc2cc(Nc3nc(N4CCC(CN5CCN6c7cc(F)c(C8CCC(=O)NC8=O)cc7CC[C@H]6C5)CC4)ncc3Cl)ccc21` (some centres unmarked) [Trifluoroacetate of compound 65], the DC50 at Bcl6 [3] is less than 10 nM. In series [4], this compound returned an AUC(0-t) greater than 1000 ng·h/mL.
Compound `CNC(=O)COc1cc2cc(Nc3nc(N4CCC(CN5CCn6c(nc7cc(F)c(C8CCC(=O)NC8=O)cc76)C5)CC4)ncc3Cl)ccc2n(C(C)C)c1=O` (centres unmarked) [Trifluoroacetate of compound 75] gave a DC50 on Bcl6 [3] of less than 10 nM. In addition, the IC50 in series [5] is greater than 40000 nM.
Compound `CC(=O)COc1cc2cc(Nc3nc(N4CCC(N5CCN(c6ccc(C7CCC(=O)NC7=O)cc6)CC5)CC4)ncc3Cl)ccc2n(C)c1=O` (centres unmarked) [Compound 15] came in with an AUC(0-t) in series [4] greater than 1000 ng·h/mL. For the same compound, the DC50 at Bcl6 [1] was less than 100 nM.
In the case of `[2H]C([2H])([2H])NC(=O)COc1cc2cc(Nc3nc(N4CCC(CN5CCN6c7cc(F)c(C8CCC(=O)NC8=O)cc7CC[C@@H]6C5)CC4)ncc3Cl)ccc2n(C)c1=O` (some centres unmarked) [Trifluoroacetate of compound 64], the 50% degradation concentration (DC50) on Bcl6 [3] is less than 10 nM. Besides, the AUC(0-t) in series [4] is greater than 1000 ng·h/mL.
The compound `CNC(=O)COc1cc2cc(Nc3nc(N4CCC(CN5CCn6c(cc7cc(C8CCC(=O)NC8=O)c(F)cc76)C5)CC4)ncc3Cl)ccc2n(C(C)C)c1=O` (centres unmarked) [Trifluoroacetate of compound 77] gave a DC50 at Bcl6 [3] of less than 10 nM. Moreover, the IC50 in series [5] was greater than 40000 nM.
